# According to US20220235006A1, “PYRIDINE DERIVATIVES AS TMEM16A MODULATORS FOR USE IN THE TREATMENT OF RESPIRATORY CONDITIONS” (TMEM16A LIMITED, priority 2019, published 2022):
# Molecular target: T1, human TMEM16A (TMEM16Aabc variant) (Homo sapiens, UniProt Q5XXA6, DEL476-501)
# T1 sequence (Q5XXA6 with tags, fused parts or gaps isoform Q5XXA6-5 DEL539-564): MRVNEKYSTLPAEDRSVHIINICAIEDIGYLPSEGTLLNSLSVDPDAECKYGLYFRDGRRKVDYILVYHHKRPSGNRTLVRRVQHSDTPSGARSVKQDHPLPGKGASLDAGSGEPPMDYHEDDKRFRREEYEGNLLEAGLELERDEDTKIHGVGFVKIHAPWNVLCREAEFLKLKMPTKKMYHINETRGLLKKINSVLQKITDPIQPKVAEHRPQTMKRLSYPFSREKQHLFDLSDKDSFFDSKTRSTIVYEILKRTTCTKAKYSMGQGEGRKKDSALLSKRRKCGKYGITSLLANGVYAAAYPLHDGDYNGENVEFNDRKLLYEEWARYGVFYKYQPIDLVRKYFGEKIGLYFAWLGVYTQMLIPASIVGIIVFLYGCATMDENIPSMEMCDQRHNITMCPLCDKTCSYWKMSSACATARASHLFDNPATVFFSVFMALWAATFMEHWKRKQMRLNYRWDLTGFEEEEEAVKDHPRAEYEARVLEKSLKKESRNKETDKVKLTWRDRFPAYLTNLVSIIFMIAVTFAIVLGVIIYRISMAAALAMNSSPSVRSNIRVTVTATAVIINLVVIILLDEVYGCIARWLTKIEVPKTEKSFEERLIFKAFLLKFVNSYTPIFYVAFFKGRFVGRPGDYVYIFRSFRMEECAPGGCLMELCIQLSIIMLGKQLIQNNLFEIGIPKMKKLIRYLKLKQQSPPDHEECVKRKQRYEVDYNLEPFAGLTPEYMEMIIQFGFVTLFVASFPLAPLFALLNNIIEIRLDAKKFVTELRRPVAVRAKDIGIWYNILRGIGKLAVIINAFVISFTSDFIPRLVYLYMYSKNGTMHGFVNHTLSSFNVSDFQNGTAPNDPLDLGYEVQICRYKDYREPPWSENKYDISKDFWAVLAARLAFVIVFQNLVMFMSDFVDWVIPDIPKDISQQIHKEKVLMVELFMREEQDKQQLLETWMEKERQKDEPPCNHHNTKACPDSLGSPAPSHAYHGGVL
# Assay: Automated whole-cell patch clamp (Qpatch) TMEM16A potentiator assay in recombinant FRT cells
# Assay type: cell-based
# Conditions: for activation at 3.33 µM: percentage increase of baseline TMEM16A current, minimum n = 2, read-out: % Potentiation @ 3.33 uM Avg; for EC50: minimum n = 2
# Description: Automated Whole-Cell Patch Clamp Assay to Detect TMEM16A Activity in Recombinant Cells
# Fisher rat thyroid (FRT) cells stably expressing human TMEM16A (TMEM16Aabc variant; Dr Luis Galietta, Insituto Giannina, Italy) were cultured in T-75 flasks in Hams F-12 media with Coon's modification (Sigma) supplemented with 10% (v/v) foetal bovine serum, penicillin-streptomycin (10,000 U/mL/10000 μg/mL), G-418 (750 μg/mL), L-glutamine (2 mM) and sodium bicarbonate solution (7.5% v/v). At ˜90% confluence cells were harvested for experiments by detachment with a 2:1 (v/v) mixture of Detachin (BMS Biotechnology) and 0.25% (w/v) trypsin-EDTA.
# FRT-TMEM16A cells were whole-cell patch clamped using an automated planar patch clamp system (Qpatch, Sophion). Briefly, once high resistance (GOhm) seals were established between the cells and the planar recording array the patch was ruptured using suction pulses to establish the whole-cell recording configuration of the patch clamp technique. The assay employed the following solutions (all reagents Sigma): Intracellular solution (mM): N-methyl-D-glucamine 130, CaCl2 18.2, MgCl2 1, HEPES 10, EGTA 10, BAPTA 20, Mg-ATP 2, pH 7.25, 325 mOsm with sucrose.
# Extracellular solution (mM): N-methyl-D-glucamine 130, CaCl2 2, MgCl2 1, HEPES 10, pH 7.3, 320 mOsm with sucrose.
# The intracellular solution buffers intracellular calcium at levels required to give ˜20% activation of the maximal TMEM16A mediated current (E020 for calcium ions). Cells were voltage clamped at a holding potential of −70mV and a combined voltage step (to +70 mV)/ramp (−90 my to +90 mV) was applied at 0.05 Hz. After a period of current stabilisation test compounds, solubilised in 100% (v/v) DMSO and subsequently diluted into extracellular solution, were applied to generate a cumulative concentration response curve. Each concentration of test compound was incubated for 5 minutes before addition of the next concentration. After the final concentration was tested a supramaximal concentration of either a known active positive modulator or the TMEM16A inhibitor, CaCCinhA01 (Del La Fuente et al, 2008) was added to define the upper and lower limits of the assay.
# Compound activity was quantified by measuring the increase in current upon compound addition and expressing this as a percentage increase of baseline TMEM16A current level.
# Peak TMEM16A current at +70 mV was plotted as a function of time over the assay period. Baseline current (IBL) was measured after a period of stabilisation. The increase in current for each compound addition was determined by taking the peak current during the incubation period and subtracting the current from the previous recording period and then expressing this as a percentage of the baseline current (% potentiation). For test compound concentration 1 in FIG. 1 this is:
# For each additional concentration tested the increase in current was determined by subtracting the current from the previous incubation period and normalising the baseline value—for test concentration 2 in FIG. 1 this is:
# The values for each test concentration were plotted as a cumulative function of concentration eg. for test concentration two this would be the sum of the peak changes measured during concentration one plus concentration two.
SMILES,activation at 3.33 µM [%],EC50 [nM]
"CC(C)(CO)c1cc(F)c(CC(=O)Nc2ccnc(C(=O)NC3(C(F)(F)F)COC3)c2)cc1O [Example 12.1, 4-[[2-[2-Fluoro-5-hydroxy-4-(2-hydroxy-1,1-dimethyl-ethyl)phenyl]acetyl]amino]-N-[3-(trifluoromethyl)oxetan-3-yl]pyridine-2-carboxamide]",406,52
"CC1(NC(=O)c2cc(NC(=O)Cc3cc(O)c(C(C)(C)CO)cc3F)ccn2)CC(F)(F)C1 [Example 15, N-(3,3-Difluoro-1-methyl-cyclobutyl)-4-[[2-[2-fluoro-5-hydroxy-4-(2-hydroxy-1,1-dimethyl-ethyl)phenyl]acetyl]amino]pyridine-2-carboxamide]",113,14
"O=C(Cc1cc(O)c(C2(CO)CC2)cc1F)Nc1ccnc(C(=O)NC2(C(F)(F)F)CC2)c1 [Example 2.16, 4-[[2-[2-Fluoro-5-hydroxy-4-[1-(hydroxymethyl)cyclopropyl]phenyl]acetyl]amino]-N-[1-(trifluoromethyl)cyclopropyl]pyridine-2-carboxamide]",227,76
"CC(O)(c1cc(F)c(CC(=O)Nc2ccnc(C(=O)NC3(C(F)(F)F)CC3)c2)cc1O)C1CC1 (stereo not shown) [Example 2.8, 4-[[2-[4-(1-Cyclopropyl-1-hydroxy-ethyl)-2-fluoro-5-hydroxy-phenyl]acetyl]amino]-N-[1-(trifluoromethyl)cyclopropyl]pyridine-2-carboxamide]",302,77
"CC1(NC(=O)c2cc(NC(=O)Cc3cc(O)c(C(C)(C)CO)cc3F)ccn2)CCOCC1 [Example 16.1, 4-[[2-[2-Fluoro-5-hydroxy-4-(2-hydroxy-1,1-dimethyl-ethyl)phenyl]acetyl]amino]-N-(4-methyltetrahydropyran-4-yl)pyridine-2-carboxamide]",214,181
"CC(C)(O)c1cc(Cl)c(CC(=O)Nc2ccnc(C(=O)NC3(C(F)(F)F)CC3)c2)cc1O [Example 19, 4-[[2-[2-Chloro-5-hydroxy-4-(1-hydroxy-1-methyl-ethyl)phenyl]acetyl]amino]-N-[1-(trifluoromethyl)cyclopropyl]pyridine-2-carboxamide]",244,46
"N#CC1(c2cc(F)c(CC(=O)Nc3ccnc(C(=O)NC4(C(F)(F)F)CC4)c3)cc2O)CCOCC1 [Example 2.9, 4-[[2-[4-(4-Cyanotetrahydropyran-4-yl)-2-fluoro-5-hydroxy-phenyl]acetyl]amino]-N-[1-(trifluoromethyl)cyclopropyl]pyridine-2-carboxamide]",295,149

# Results, then the compound that gave them:
activation at 3.33 µM [%],EC50 [nM],SMILES
350,466,"CC(C)(C#N)NC(=O)c1cc(NC(=O)Cc2cc(O)c(C(C)(C)O)cc2F)ccn1 [Example 2.1, N-(1-Cyano-1-methyl-ethyl)-4-[[2-[2-fluoro-5-hydroxy-4-(1-hydroxy-1-methyl-ethyl)phenyl]acetyl]amino]pyridine-2-carboxamide]"
150,118,"CC(C)(CO)c1cc(F)c(CC(=O)Nc2ccnc(C(=O)NC3(C#N)CCOCC3)c2)cc1O [Example 12, N-(4-Cyanotetrahydropyran-4-yl)-4-[[2-[2-fluoro-5-hydroxy-4-(2-hydroxy-1,1-dimethyl-ethyl)phenyl]acetyl]amino]pyridine-2-carboxamide]"
209,42,"Cc1cc(C(C)(C)O)c(O)cc1CC(=O)Nc1ccnc(C(=O)NC2(C(F)(F)F)CC2)c1 [Example 2.12, 4-[[2-[5-Hydroxy-4-(1-hydroxy-1-methyl-ethyl)-2-methyl-phenyl]acetyl]amino]-N-[1-(trifluoromethyl)cyclopropyl]pyridine-2-carboxamide]"
121,40,CC(C#N)(CO)NC(=O)c1cc(NC(=O)Cc2cc(O)c(C(C)(C)C)cc2F)ccn1 (stereo not shown) [Example 1.6]
